From patent US10894069B2, “Topical antiviral formulations and methods of using the same” (priority 2015, dated 2021)

Legend:
Herpes simplex = assay: Informal patient trials, topical treatment of Herpes simplex of the lips / herpes labialis; assay type: in vivo, human; settings: person; for benefit of prior therapy, orally: oral
herpes genitalias = assay: Patient case, topical treatment of herpes genitalis; assay type: in vivo, human; settings: person, high dose
Procedure: Operating with informed consent, individuals treated with the topical composition and the methods of the present invention for treating herpes virus infection, more particularly Herpes simplex and herpes zoster or shingles, as described in Examples 3 to 8.
A person presented with a decade or longer history of herpes genitalias recurring on the epithelium of the penis, more specifically the shaft. […] The patient was then treated with Composition B of the cannabinoid rich topical of Example 1 one to two times a day.

[1] = cited from earlier work
[2] = cited from earlier work; remark: listed apart in the source

## CC(C)[C@H](N)C(=O)OCCOCn1cnc2c(=O)[nH]c(N)nc21 [Valtrex, valacyclovir]
Herpes simplex; high doses
  satisfaction with prior therapy: without total satisfaction
Herpes simplex
  benefit of prior therapy, orally: slight benefit
Herpes genitalias
  response of severe pain with burning and tingling to prior therapy: had not responded

## Nc1nc2c(ncn2COCCO)c(=O)[nH]1 [acyclovir]
[1]
  solubility in water: poor water-solubility
[2]
  concentrations in the skin following topical application versus following oral administration: 2-3 times lower

## CCCCCc1cc(O)c2c(c1)OC(C)(C)[C@@H]1CCC(C)=C[C@@H]21 [THC, delta-9-tetrahydrocannabinol]
[1]; specifically lipids and alcohols
  solubility in organic solvents: good solubility in most organic solvents

## Nc1nc2c(ncn2COCCO)c(=O)[nH]1 [Zovirax, acyclovir]
Herpes simplex
  benefit of prior therapy, orally: slight benefit
Herpes simplex; topical
  benefit of prior therapy, topically: without benefit
